{
  "source": "ChEMBL document CHEMBL2062415",
  "about": "“Steroids from Commiphora mukul display antiproliferative effect against human prostate cancer PC3 cells via induction of apoptosis” (Bioorg Med Chem Lett, 2012)",
  "key": {"MCF7 [1]": {"tested_on": "MCF7", "test": "Cytotoxicity against human MCF7 cells assessed as cell viability at 10 uM after 24 hrs by MTT assay", "format": "functional", "settings": "MCF7, 24 h, read-out: Activity"}, "PC-3 [2]": {"tested_on": "PC-3", "test": "Induction of apoptosis in human PC3 cells assessed as late apoptotic cells at 20 uM after 48 hrs by annexinV/propidium iodide staining-based FITC analysis relative to control", "format": "functional"}, "PC-3 [3]": {"tested_on": "PC-3", "test": "Induction of apoptosis in human PC3 cells assessed as necrotic cells at 20 uM after 48 hrs by annexinV/propidium iodide staining-based FITC analysis relative to control", "format": "functional"}, "DU-145 [4]": {"tested_on": "DU-145", "test": "Induction of apoptosis in human DU145cells assessed as late apoptotic cells at 20 uM after 48 hrs by annexinV/propidium iodide staining-based FITC analysis (reference value: 2.78%)", "format": "functional"}, "DU-145 [5]": {"tested_on": "DU-145", "test": "Induction of apoptosis in human DU145 cells assessed as necrotic cells at 20 uM after 48 hrs by annexinV/propidium iodide staining-based FITC analysis (reference value: 0.35%)", "format": "functional"}, "DU-145 [6]": {"tested_on": "DU-145", "test": "Induction of apoptosis in human DU145 cells assessed as early apoptotic cells at 40 uM after 48 hrs by annexinV/propidium iodide staining-based FITC analysis (reference value: 2.34%)", "format": "functional"}, "DU-145 [7]": {"tested_on": "DU-145", "test": "Induction of apoptosis in human DU145 cells assessed as late apoptotic cells at 40 uM after 48 hrs by annexinV/propidium iodide staining-based FITC analysis (reference value: 2.78%)", "format": "functional"}, "MCF7 [8]": {"tested_on": "MCF7", "test": "Induction of apoptosis in human MCF7 cells assessed as early apoptotic cells at 5 uM after 48 hrs by annexinV/propidium iodide staining-based FITC analysis (reference value: 5.48%)", "format": "functional"}, "MCF7 [9]": {"tested_on": "MCF7", "test": "Induction of apoptosis in human MCF7 cells assessed as early apoptotic cells at 10 uM after 48 hrs by annexinV/propidium iodide staining-based FITC analysis (reference value: 5.48%)", "format": "functional"}, "MCF7 [10]": {"tested_on": "MCF7", "test": "Induction of apoptosis in human MCF7 cells assessed as late apoptotic cells at 10 uM after 48 hrs by annexinV/propidium iodide staining-based FITC analysis (reference value: 3.57%)", "format": "functional"}, "MCF7 [11]": {"tested_on": "MCF7", "test": "Induction of apoptosis in human MCF7 cells assessed as early apoptotic cells at 20 uM after 48 hrs by annexinV/propidium iodide staining-based FITC analysis (reference value: 5.48%)", "format": "functional"}, "K562 [12]": {"tested_on": "K562", "test": "Induction of apoptosis in human K562 cells assessed as late apoptotic cells at 1 uM after 48 hrs by annexinV/propidium iodide staining-based FITC analysis (reference value: 2.55%)", "format": "functional"}, "K562 [13]": {"tested_on": "K562", "test": "Induction of apoptosis in human K562 cells assessed as early apoptotic cells at 5 uM after 48 hrs by annexinV/propidium iodide staining-based FITC analysis (reference value: 2.08%)", "format": "functional"}, "K562 [14]": {"tested_on": "K562", "test": "Induction of apoptosis in human K562 cells assessed as early apoptotic cells at 10 uM after 48 hrs by annexinV/propidium iodide staining-based FITC analysis (reference value: 2.08%)", "format": "functional"}, "K562 [15]": {"tested_on": "K562", "test": "Induction of apoptosis in human K562 cells assessed as late apoptotic cells at 10 uM after 48 hrs by annexinV/propidium iodide staining-based FITC analysis (reference value: 2.55%)", "format": "functional"}, "K562 [16]": {"tested_on": "K562", "test": "Induction of apoptosis in human K562 cells assessed as necrotic cells at 10 uM after 48 hrs by annexinV/propidium iodide staining-based FITC analysis (reference value: 1.19%)", "format": "functional"}, "PC-3 [17]": {"tested_on": "PC-3", "test": "Induction of apoptosis in human PC3 cells assessed as early apoptotic cells after 48 hrs by annexinV/propidium iodide staining-based FITC analysis relative to control", "format": "functional, cell-based"}, "PC-3 [18]": {"tested_on": "PC-3", "test": "Cell cycle arrest in human PC3 cells assessed as accumulation at G2/M phase after 48 hrs by propidium iodide staining-based flow cytometric analysis", "format": "functional"}, "PC-3 [19]": {"tested_on": "PC-3", "test": "Cell cycle arrest in human PC3 cells assessed as accumulation at S phase at 5 uM after 48 hrs by propidium iodide staining-based flow cytometric analysis relative to control", "format": "functional"}, "PC-3 [20]": {"tested_on": "PC-3", "test": "Cell cycle arrest in human PC3 cells assessed as accumulation at G0/G1 phase at 10 uM after 48 hrs by propidium iodide staining-based flow cytometric analysis relative to control", "format": "functional"}, "PC-3 [21]": {"tested_on": "PC-3", "test": "Cell cycle arrest in human PC3 cells assessed as accumulation at S phase at 20 uM after 48 hrs by propidium iodide staining-based flow cytometric analysis relative to control", "format": "functional"}, "PC-3 [22]": {"tested_on": "PC-3", "test": "Cell cycle arrest in human PC3 cells assessed as accumulation at G2/M phase at 20 uM after 48 hrs by propidium iodide staining-based flow cytometric analysis relative to control", "format": "functional"}, "DU-145 [23]": {"tested_on": "DU-145", "test": "Induction of apoptosis in human DU145 cells assessed as accumulation at G0/G1 phase at 10 uM after 48 hrs by propidium iodide staining-based flow cytometric analysis (reference value: 72.11%)", "format": "functional"}, "DU-145 [24]": {"tested_on": "DU-145", "test": "Induction of apoptosis in human DU145 cells assessed as accumulation at S phase at 10 uM after 48 hrs by propidium iodide staining-based flow cytometric analysis (reference value: 11.48%)", "format": "functional"}, "DU-145 [25]": {"tested_on": "DU-145", "test": "Induction of apoptosis in human DU145 cells assessed as accumulation at G0/G1 phase at 20 uM after 48 hrs by propidium iodide staining-based flow cytometric analysis (reference value: 72.11%)", "format": "functional"}, "DU-145 [26]": {"tested_on": "DU-145", "test": "Induction of apoptosis in human DU145 cells assessed as accumulation at G2/M phase at 20 uM after 48 hrs by propidium iodide staining-based flow cytometric analysis (reference value: 16.14%)", "format": "functional"}, "MCF7 [27]": {"tested_on": "MCF7", "test": "Induction of apoptosis in human MCF7 cells assessed as accumulation at G2/M phase at 5 uM after 48 hrs by propidium iodide staining-based flow cytometric analysis (reference value: 9.55%)", "format": "functional"}, "MCF7 [28]": {"tested_on": "MCF7", "test": "Induction of apoptosis in human MCF7 cells assessed as accumulation at G0/G1 phase at 10 uM after 48 hrs by propidium iodide staining-based flow cytometric analysis (reference value: 67.46%)", "format": "functional"}, "MCF7 [29]": {"tested_on": "MCF7", "test": "Induction of apoptosis in human MCF7 cells assessed as accumulation at G2/M phase at 10 uM after 48 hrs by propidium iodide staining-based flow cytometric analysis (reference value: 9.55%)", "format": "functional"}, "MCF7 [30]": {"tested_on": "MCF7", "test": "Induction of apoptosis in human MCF7 cells assessed as accumulation at G0/G1 phase at 20 uM after 48 hrs by propidium iodide staining-based flow cytometric analysis (reference value: 67.46%)", "format": "functional"}, "MCF7 [31]": {"tested_on": "MCF7", "test": "Induction of apoptosis in human MCF7 cells assessed as accumulation at G2/M phase at 20 uM after 48 hrs by propidium iodide staining-based flow cytometric analysis (reference value: 9.55%)", "format": "functional"}, "K562 [32]": {"tested_on": "K562", "test": "Induction of apoptosis in human K562 cells assessed as accumulation at G0/G1 phase at 1 uM after 48 hrs by propidium iodide staining-based flow cytometric analysis (reference value: 38.61%)", "format": "functional"}, "K562 [33]": {"tested_on": "K562", "test": "Induction of apoptosis in human K562 cells assessed as accumulation at G0/G1 phase at 5 uM after 48 hrs by propidium iodide staining-based flow cytometric analysis (reference value: 38.61%)", "format": "functional"}, "K562 [34]": {"tested_on": "K562", "test": "Induction of apoptosis in human K562 cells assessed as accumulation at G2/M phase at 5 uM after 48 hrs by propidium iodide staining-based flow cytometric analysis (reference value: 15.72%)", "format": "functional"}, "PC-3 [35]": {"tested_on": "PC-3", "test": "Increase in Bax protein level in human PC3 cells after 48 hrs by Western blot analysis", "format": "functional, cell-based"}, "PC-3 [36]": {"tested_on": "PC-3", "test": "Induction of apoptosis in human PC3 cells assessed as increase in PARP cleavage product after 48 hrs by Western blot analysis", "format": "functional, cell-based"}},
  "data": [
    {"smiles": "CC[C@H](/C=C/[C@@H](C)[C@H]1CC[C@H]2[C@H]3[C@H]([C@H](O)C[C@]12C)[C@@]1(C)CC[C@H](O)CC1=C[C@H]3O)C(C)C", "values": [
      {"measurement": "viability at 10 µM", "setting": "MCF7 [1]", "value": 36, "unit": "%"},
      {"measurement": "Activity", "setting": "PC-3 [2]", "value": 42.21, "unit": "%"},
      {"measurement": "Activity", "setting": "PC-3 [3]", "value": 2.79, "unit": "%"},
      {"measurement": "Activity", "setting": "DU-145 [4]", "value": 5.73, "unit": "%"},
      {"measurement": "Activity", "setting": "DU-145 [5]", "value": 2.38, "unit": "%"},
      {"measurement": "Activity", "setting": "DU-145 [6]", "value": 3.13, "unit": "%"},
      {"measurement": "Activity", "setting": "DU-145 [7]", "value": 13.63, "unit": "%"},
      {"measurement": "Activity", "setting": "MCF7 [8]", "value": 6.72, "unit": "%"},
      {"measurement": "Activity", "setting": "MCF7 [9]", "value": 6.81, "unit": "%"},
      {"measurement": "Activity", "setting": "MCF7 [10]", "value": 4.42, "unit": "%"},
      {"measurement": "Activity", "setting": "MCF7 [11]", "value": 9.91, "unit": "%"},
      {"measurement": "Activity", "setting": "K562 [12]", "value": 1.79, "unit": "%"},
      {"measurement": "Activity", "setting": "K562 [13]", "value": 3.77, "unit": "%"},
      {"measurement": "Activity", "setting": "K562 [14]", "value": 6.1, "unit": "%"},
      {"measurement": "Activity", "setting": "K562 [15]", "value": 2.62, "unit": "%"},
      {"measurement": "Activity", "setting": "K562 [16]", "value": 0.78, "unit": "%"},
      {"measurement": "Activity", "setting": "PC-3 [17]", "value": "Dose-dependent effect"},
      {"measurement": "Activity", "setting": "PC-3 [18]", "value": "Dose-dependent effect"},
      {"measurement": "Activity", "setting": "PC-3 [19]", "value": 26.9, "unit": "%"},
      {"measurement": "Activity", "setting": "PC-3 [20]", "value": 52.69, "unit": "%"},
      {"measurement": "Activity", "setting": "PC-3 [21]", "value": 14.34, "unit": "%"},
      {"measurement": "Activity", "setting": "PC-3 [22]", "value": 29.84, "unit": "%"},
      {"measurement": "Activity", "setting": "DU-145 [23]", "value": 65.66, "unit": "%"},
      {"measurement": "Activity", "setting": "DU-145 [24]", "value": 12.94, "unit": "%"},
      {"measurement": "Activity", "setting": "DU-145 [25]", "value": 67.88, "unit": "%"},
      {"measurement": "Activity", "setting": "DU-145 [26]", "value": 20.74, "unit": "%"},
      {"measurement": "Activity", "setting": "MCF7 [27]", "value": 8.56, "unit": "%"},
      {"measurement": "Activity", "setting": "MCF7 [28]", "value": 71.05, "unit": "%"},
      {"measurement": "Activity", "setting": "MCF7 [29]", "value": 10.03, "unit": "%"},
      {"measurement": "Activity", "setting": "MCF7 [30]", "value": 55.93, "unit": "%"},
      {"measurement": "Activity", "setting": "MCF7 [31]", "value": 24.7, "unit": "%"},
      {"measurement": "Activity", "setting": "K562 [32]", "value": 41.16, "unit": "%"},
      {"measurement": "Activity", "setting": "K562 [33]", "value": 40.79, "unit": "%"},
      {"measurement": "Activity", "setting": "K562 [34]", "value": 13.71, "unit": "%"},
      {"measurement": "Activity", "setting": "PC-3 [35]", "value": "Dose-dependent effect"},
      {"measurement": "Activity", "setting": "PC-3 [36]", "value": "Dose-dependent effect"}
    ]}
  ]
}
